# Experimental data taken from patent publication US20180368410A1, “MICROBIOCIDAL OXADIAZOLE DERIVATIVES” (SYNGENTA PARTICIPATIONS AG, priority 2015, published 2018).
# Key:
# [1] = test system: Puccinia recondita f. Sp. Tritici; experiment: Puccinia recondita f. sp. tritici / wheat / leaf disc preventative (brown rust); format: in vivo, Puccinia recondita f. sp. tritici on wheat cv. Kanzler; conditions: foliar, 200 ppm in the applied formulation, inoculated 1 day after application, assessed 7 to 9 days after application, vs untreated control leaf disks, read-out: disease control
# Description: Leaf disks or leaf segments of various plant species are cut from plants grown in a greenhouse. The cut leaf disks or segments are placed in multiwell plates (24-well format) onto water agar. The leaf disks are sprayed with a test solution before (preventative) or after (curative) inoculation. Compounds to be tested are prepared as DMSO solutions (max. 10 mg/ml) which are diluted to the appropriate concentration with 0.025% Tween20 just before spraying. The inoculated leaf disks or segments are incubated under defined conditions (temperature, relative humidity, light, etc.) according to the respective test system. A single evaluation of disease level is carried out 3 to 14 days after inoculation, depending on the pathosystem. Percent disease control relative to the untreated check leaf disks or segments is then calculated. Wheat leaf segments cv. Kanzler were placed on agar in multiwell plates (24-well format) and sprayed with the formulated test compound diluted in water. The leaf disks were inoculated with a spore suspension of the fungus 1 day after application. The inoculated leaf segments were incubated at 19′C and 75% relative humidity (rh) under a light regime of 12 hours light/12 hours darkness in a climate cabinet and the activity of a compound was assessed as percent disease control compared to untreated when an appropriate level of disease damage appears in untreated check leaf segments (7 to 9 days after application). The following compounds at 200 ppm in the applied formulation give at least 80% disease control in this test when compared to untreated control leaf disks under the same conditions, which show extensive disease development.
# [2] = test system: Puccinia recondita f. Sp. Triticil; experiment: Puccinia recondita f. sp. tritici / wheat / leaf disc curative (brown rust); format: in vivo, Puccinia recondita f. sp. tritici on wheat cv. Kanzler; conditions: foliar, 200 ppm in the applied formulation, applied 1 day after inoculation, assessed 6 to 8 days after application, vs untreated control leaf disks, read-out: disease control
# Description: Leaf disks or leaf segments of various plant species are cut from plants grown in a greenhouse. The cut leaf disks or segments are placed in multiwell plates (24-well format) onto water agar. The leaf disks are sprayed with a test solution before (preventative) or after (curative) inoculation. Compounds to be tested are prepared as DMSO solutions (max. 10 mg/ml) which are diluted to the appropriate concentration with 0.025% Tween20 just before spraying. The inoculated leaf disks or segments are incubated under defined conditions (temperature, relative humidity, light, etc.) according to the respective test system. A single evaluation of disease level is carried out 3 to 14 days after inoculation, depending on the pathosystem. Percent disease control relative to the untreated check leaf disks or segments is then calculated.
# Wheat leaf segments cv. Kanzler are placed on agar in multiwell plates (24-well format). The leaf segments are then inoculated with a spore suspension of the fungus. Plates were stored in darkness at 19° C. and 75% relative humidity. The formulated test compound diluted in water was applied 1 day after inoculation. The leaf segments were incubated at 19° C. and 75% relative humidity under a light regime of 12 hours light/12 hours darkness in a climate cabinet and the activity of a compound was assessed as percent disease control compared to untreated when an appropriate level of disease damage appears in untreated check leaf segments (6 to 8 days after application).
# The following compounds at 200 ppm in the applied formulation give at least 80% disease control in this test when compared to untreated control leaf disks under the same conditions, which show extensive disease development.
# [3] = test system: Glomerella Lacenarium (Colletotrichum lacenarium); experiment: Glomerella lagenarium (Colletotrichum lagenarium) liquid culture / cucumber / preventative (anthracnose); format: cell-based; conditions: 20 ppm in the applied formulation, liquid culture in PDB, 24° C., inhibition of growth measured photometrically 3 to 4 days after application, vs untreated control, read-out: disease control
# Description: Mycelia fragments or conidia suspensions of a fungus prepared either freshly from liquid cultures of the fungus or from cryogenic storage, are directly mixed into nutrient broth. DMSO solutions of the test compound (max. 10 mg/ml) are diluted with 0.025% Tween20 by a factor of 50 and 10 μl of this solution is pipetted into a microtiter plate (96-well format). The nutrient broth containing the fungal spores/mycelia fragments is then added to give an end concentration of the tested compound. The test plates are incubated in the dark at 24° C. and 96% relative humidity. The inhibition of fungal growth is determined photometrically after 2 to 7 days, depending on the pathosystem, and percent antifungal activity relative to the untreated check is calculated.
# Conidia of the fungus from cryogenic storage are directly mixed into nutrient broth (PDB—potato dextrose broth). After placing a (DMSO) solution of test compound into a microtiter plate (96-well format), the nutrient broth containing the fungal spores is added. The test plates are incubated at 24° C. and the inhibition of growth is measured photometrically 3 to 4 days after application.
# The following compounds at 20 ppm in the applied formulation give at least 80% disease control in this test when compared to untreated control under the same conditions, which show extensive disease development.
SMILES,pest or weed control at 200 ppm [1] [%],pest or weed control at 200 ppm [2] [%],inhibition of growth at 20 ppm [3] [%]
"O=C(NCc1ccc(-c2noc(C(F)(F)F)n2)cn1)C1CC1(F)F (stereo not shown) [Compound 1.86, 2,2-difluoro-N-[[5-[5-(trifluoromethyl)-1,2,4-oxadiazol-3-yl]-2-pyridyl]methyl] cyclopropanecarboxamide]",≥ 80,≥ 80,≥ 80
"O=C(NCc1ccc(-c2noc(C(F)(F)F)n2)cc1)c1c(Cl)cccc1Cl [Compound 1.42, 2,6-dichloro-N-[[4-[5-(trifluoromethyl)-1,2,4-oxadiazol-3-yl]phenyl]methyl]benzamide]",≥ 80,,
"O=C(NCc1ccc(-c2noc(C(F)(F)F)n2)cc1F)c1ccccc1Cl [Compound 1.48, 2-chloro-N-[[2-fluoro-4-[5-(trifluoromethyl)-1,2,4-oxadiazol-3-yl]phenyl]methyl]benzamide]",≥ 80,,≥ 80
"CC1(C(=O)NCc2ccc(-c3noc(C(F)(F)F)n3)cc2Cl)CC1 [Compound 1.79, N-[[2-chloro-4-[5-(trifluoromethyl)-1,2,4-oxadiazol-3-yl]phenyl]methyl]-1-methyl-cyclopropanecarboxamide]",,,≥ 80
"CC1CC1C(=O)NCc1ccc(-c2noc(C(F)(F)F)n2)cn1 (stereo not shown) [Compound 1.89, 2-methyl-N-[[5-[5-(trifluoromethyl)-1,2,4-oxadiazol-3-yl]-2-pyridyl]methyl] cyclopropanecarboxamide]",≥ 80,≥ 80,≥ 80
"O=C(NCc1ccc(-c2noc(C(F)(F)F)n2)cc1Cl)C1CC1 [Compound 1.81, N-[[2-chloro-4-[5-(trifluoromethyl)-1,2,4-oxadiazol-3-yl]phenyl]methyl] cyclopropanecarboxamide]",,,≥ 80
"O=C(NCc1ccc(-c2noc(C(F)(F)F)n2)cn1)C1CCC1 [Compound 1.88, N-[[5-[5-(trifluoromethyl)-1,2,4-oxadiazol-3-yl]-2-pyridyl]methyl] cyclobutanecarboxamide]",≥ 80,≥ 80,≥ 80
"O=C(NCc1ccc(-c2noc(C(F)(F)F)n2)cc1)c1ccccc1C(F)(F)F [Compound 1.43, 2-(trifluoromethyl)-N-[[4-[5-(trifluoromethyl)-1,2,4-oxadiazol-3-yl]phenyl]methyl]benzamide]",≥ 80,,
"COc1ccc(C2(C(=O)NCc3ccc(-c4noc(C(F)(F)F)n4)cc3)CC2)cc1 [Compound 1.38, 1-(4-methoxyphenyl)-N-[[4-[5-(trifluoromethyl)-1,2,4-oxadiazol-3-yl]phenyl]methyl] cyclopropanecarboxamide]",≥ 80,,≥ 80
"O=C(CC1CC1)NCc1ccc(-c2noc(C(F)(F)F)n2)cc1Cl [Compound 1.74, N-[[2-chloro-4-[5-(trifluoromethyl)-1,2,4-oxadiazol-3-yl]phenyl]methyl]-2-cyclopropyl-acetamide]",,,≥ 80
"O=C(NCc1ccc(-c2noc(C(F)(F)F)n2)cc1F)C1CCOC1 (stereo not shown) [Compound 1.70, N-[[2-fluoro-4-[5-(trifluoromethyl)-1,2,4-oxadiazol-3-yl]phenyl]methyl] tetrahydrofuran-3-carboxamide]",≥ 80,≥ 80,≥ 80
"O=C(NCc1ccc(-c2noc(C(F)(F)F)n2)c(F)c1)C1CCOC1 (stereo not shown) [Compound 1.68, N-[[3-fluoro-4-[5-(trifluoromethyl)-1,2,4-oxadiazol-3-yl]phenyl]methyl] tetrahydrofuran-3-carboxamide]",≥ 80,≥ 80,≥ 80
"O=C(NCc1ccc(-c2noc(C(F)(F)F)n2)cn1)C1CC1 [Compound 1.45, N-[[5-[5-(trifluoromethyl)-1,2,4-oxadiazol-3-yl]-2-pyridyl]methyl] cyclopropanecarboxamide]",≥ 80,≥ 80,≥ 80
"O=C(NCc1ccc(-c2noc(C(F)(F)F)n2)cc1Cl)C1CCCO1 (stereo not shown) [Compound 1.50, N-[[2-chloro-4-[5-(trifluoromethyl)-1,2,4-oxadiazol-3-yl]phenyl]methyl]tetrahydrofuran-2-carboxamide]",≥ 80,≥ 80,≥ 80
"O=C(NCc1ccc(-c2noc(C(F)(F)F)n2)cc1F)C1CCC1 [Compound 1.63, N-[[2-fluoro-4-[5-(trifluoromethyl)-1,2,4-oxadiazol-3-yl]phenyl]methyl] cyclobutanecarboxamide]",≥ 80,≥ 80,≥ 80
"Cc1cc(C(=O)NCc2ccc(-c3noc(C(F)(F)F)n3)cc2)c(C)o1 [Compound 1.41, 2,5-dimethyl-N-[[4-[5-(trifluoromethyl)-1,2,4-oxadiazol-3-yl]phenyl]methyl]furan-3-carboxamide]",≥ 80,≥ 80,
"O=C(NCc1ccc(-c2noc(C(F)(F)F)n2)cn1)C1CCCO1 (stereo not shown) [Compound 1.46, N-[[5-[5-(trifluoromethyl)-1,2,4-oxadiazol-3-yl]-2-pyridyl]methyl]tetrahydrofuran-2-carboxamide]",≥ 80,≥ 80,≥ 80
"O=C(CC1CC1)NCc1ccc(-c2noc(C(F)(F)F)n2)cn1 [Compound 1.87, 2-cyclopropyl-N-[[5-[5-(trifluoromethyl)-1,2,4-oxadiazol-3-yl]-2-pyridyl]methyl]acetamide]",≥ 80,≥ 80,≥ 80
"CC1(C(=O)NCc2ccc(-c3noc(C(F)(F)F)n3)cc2Cl)COC1 [Compound 1.84, N-[[2-chloro-4-[5-(trifluoromethyl)-1,2,4-oxadiazol-3-yl]phenyl]methyl]-3-methyl-oxetane-3-carboxamide]",≥ 80,,≥ 80
"O=C(NCc1ccc(-c2noc(C(F)(F)F)n2)cc1Cl)C1CCOC1 (stereo not shown) [Compound 1.82, N-[[2-chloro-4-[5-(trifluoromethyl)-1,2,4-oxadiazol-3-yl]phenyl]methyl] tetrahydrofuran-3-carboxamide]",,,≥ 80
"COc1cc(-c2noc(C(F)(F)F)n2)ccc1CNC(=O)C1CCCO1 (stereo not shown) [Compound 1.51, N-[[2-methoxy-4-[5-(trifluoromethyl)-1,2,4-oxadiazol-3-yl]phenyl]methyl]tetrahydrofuran-2-carboxamide]",,,≥ 80
"O=C(NCc1ccc(-c2noc(C(F)(F)F)n2)cc1C(F)(F)F)C1CCCO1 (stereo not shown) [Compound 1.52, N-[[2-(trifluoromethyl)-4-[5-(trifluoromethyl)-1,2,4-oxadiazol-3-yl]phenyl]methyl]tetrahydrofuran-2-carboxamide]",,,≥ 80
